Where two headings read alike, the source gives them in different places.
Experiments:
HLA-E [1] = type: binding, human; conditions: for Tm (°C) 12M, HLA-E-β2M-peptide complex thermal stability: pH 8
HLA-E [2] = tested on: HLA-E; set-up: method as in Walters et al. 2020; conditions: sandwich ELISA (3D12 anti-HLA-E capture, anti-β2M detection) after peptide exchange; normalised signal as percentage of positive control VL9 signal; previously published; ref Walters et al. 2020; cited from earlier work
HLA-E*01:03 = HLA-E*01:03 (Homo sapiens, UniProt P13747); experiment: SEC-SAXS of peptide-refolded HLA-E*01:03 complexes

Sequence	Tm (°C) 12M, HLA-E-β2M-peptide complex thermal stability (HLA-E [1]) [°C]	ELISA Rank (%VL9 binding) (HLA-E [2])	other results
VMAPRTVLL [VL9, reference compound]	49.4	100%	
QAISPRTLN [Neg Ctrl pep, reference compound]	31.8	0.3%	
SQAPLPCVL [BZLF1]	37.7	41%	Dmax (Å), maximum dimension (HLA-E*01:03): 108 Å; Molecular envelope Vol (Å3) (HLA-E*01:03): 107,950 Å3
EKQRESREK [EK9]		< 10%	
RLPAKAPLL [Mtb44]	50.6	97%	
RMYNPTNIL [RL9SIV]	35.2	22%	Molecular envelope Vol %change (HLA-E*01:03): −34%
EIEVDDDLIQK [EK11]		minimal binding	
RMYSPTSIL [RL9HIV]	38.2	43%	Molecular envelope Vol %change (HLA-E*01:03; % change in model volume following 120 μM excess peptide addition): −42%
RMAATAQVL [Mtb14]	37.8	48%	Molecular envelope Vol %change (HLA-E*01:03): −32%
VMAPRTQLL [VL9 P7Q]			drop in thermal stability (HLA-E [1]): 6.6 °C
